Results on one compound are retold here after ChEMBL document CHEMBL1131954, “Homoisofagomines: chemical-enzymatic synthesis and evaluation as alpha- and beta-glucosidase inhibitors” (Bioorg Med Chem Lett, 1999).

Molecules are shown by their SMILES. Where only a bound is given, the exact number is not on record here.

Assay [1] has as its system alpha-glucosidase (Saccharomyces cerevisiae). Description: Inhibitory activity against alpha-glucosidase of yeast; No inhibition.
The subject of assay [2] is Alpha-glucosidase (Saccharomyces cerevisiae). Description: Inhibitory activity against alpha-glucosidase of yeast at a concentration of 0.1 mM.

In the case of `C[C@@H]1NC[C@@H](CO)[C@@H](O)[C@@H]1O`, the Ki entry in assay [1] is “Not Active”. In assay [2], the inhibition (in general, the share of the control response that was lost under treatment) was less than 20%.
